From ChEMBL document CHEMBL1201862, “PubChem BioAssay data set” (2004)
Active and inactive are the calls of the source.

Experiments:
[1] = HGIII-sPLA2 enzyme inhibition potency – biochemical, QFRET, IC50, dose response (AID 743457);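 also: green fluorescence rise as the enzyme cleaves BODIPY PC-A2 in liposomes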
[2] = target: T1, Ubiquitin-conjugating enzyme E2 N (Homo sapiens, UniProt P61088); type: functional
T1 sequence (P61088 whole entry): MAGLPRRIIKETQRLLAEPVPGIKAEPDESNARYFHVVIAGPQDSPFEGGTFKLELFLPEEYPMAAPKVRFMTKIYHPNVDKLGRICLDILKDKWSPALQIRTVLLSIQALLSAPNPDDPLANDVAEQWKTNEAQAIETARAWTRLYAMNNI

Nonstructural protein 1 = Nonstructural protein 1 (Influenza A virus, UniProt Q194T2); type: functional, Influenza A virus (A/California/07/2009(H1N1))
[3] = target: T1, Ubiquitin-conjugating enzyme E2 N; type: functional; remark: listed apart in the source
Bcl-2-related protein A1 = target: T2, Bcl-2-related protein A1 (Mus musculus, UniProt Q07440); type: functional;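 also: confirmatory dose–response counterscreen on Bfl-1, used to check hits from a UBC13 polyubiquitin inhibitor campaign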
T2 sequence (Q07440 whole entry): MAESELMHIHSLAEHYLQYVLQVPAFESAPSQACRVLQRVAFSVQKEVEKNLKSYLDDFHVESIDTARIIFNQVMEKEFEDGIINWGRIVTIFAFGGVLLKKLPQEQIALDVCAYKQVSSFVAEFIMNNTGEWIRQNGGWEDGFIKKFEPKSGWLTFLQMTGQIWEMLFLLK

[4] = target: Lysine-specific demethylase 4C (Homo sapiens, UniProt Q9H3R0); assay: inhibition of JMJD2C H3K9me3 demethylation – biochemical, DELFIA europium, cherry-picked samples, dose response (AID 488835); type: functional
Hexokinase HKDC1 = target: T3, Hexokinase HKDC1 (Homo sapiens, UniProt Q2TB90); assay: activation of HKDC1 glucose phosphorylation – biochemical, W721R variant, dose response (AID 504730); type: functional
T3 sequence (Q2TB90 whole entry): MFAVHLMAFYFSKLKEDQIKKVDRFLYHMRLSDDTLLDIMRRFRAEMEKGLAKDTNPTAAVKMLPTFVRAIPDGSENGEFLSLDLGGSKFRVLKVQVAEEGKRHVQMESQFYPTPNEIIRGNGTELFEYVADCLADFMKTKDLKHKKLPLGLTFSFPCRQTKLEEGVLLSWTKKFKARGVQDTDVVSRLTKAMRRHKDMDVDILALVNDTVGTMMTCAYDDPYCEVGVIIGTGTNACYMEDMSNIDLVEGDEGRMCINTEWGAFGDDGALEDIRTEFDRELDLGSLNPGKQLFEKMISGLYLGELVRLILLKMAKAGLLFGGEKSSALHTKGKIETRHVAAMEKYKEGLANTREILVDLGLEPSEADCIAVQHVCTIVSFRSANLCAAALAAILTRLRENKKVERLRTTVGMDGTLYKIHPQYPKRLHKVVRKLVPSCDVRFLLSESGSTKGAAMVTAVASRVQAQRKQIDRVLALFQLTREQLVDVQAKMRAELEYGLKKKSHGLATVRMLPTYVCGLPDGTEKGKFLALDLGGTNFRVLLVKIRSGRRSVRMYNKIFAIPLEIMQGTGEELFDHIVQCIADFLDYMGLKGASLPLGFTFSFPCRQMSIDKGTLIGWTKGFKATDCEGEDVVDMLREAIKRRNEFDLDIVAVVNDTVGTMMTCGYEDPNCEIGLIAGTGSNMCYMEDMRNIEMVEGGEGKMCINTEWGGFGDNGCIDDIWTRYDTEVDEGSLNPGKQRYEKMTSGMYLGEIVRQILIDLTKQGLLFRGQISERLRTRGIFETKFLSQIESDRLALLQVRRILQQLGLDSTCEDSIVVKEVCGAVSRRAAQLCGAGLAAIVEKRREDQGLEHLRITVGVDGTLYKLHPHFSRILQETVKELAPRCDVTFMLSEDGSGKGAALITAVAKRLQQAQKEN

Hexokinase-1 = Hexokinase-1 (Homo sapiens, UniProt P19367); assay: HK1 enzyme activation by HKDC1 hits – biochemical, selectivity assay for HKDC1 activator project, dose response (AID 504762); type: functional
[5] = target: Neuropeptide Y receptor type 2 (Homo sapiens, UniProt P49146); type: functional, cell-based;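 also: HEK293 cells expressing the receptor and a CNG channel; stimulus was NPY near EC95 followed by isoproterenol to raise cAMP; antagonist potency measured as restoring cAMP signal that NPY suppresses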
Protein RecA = target: T4, Protein RecA (Mycobacterium tuberculosis, UniProt P9WHJ3); assay: Fluorescence Cell-Free Homogeneous Dose Retest to Identify Inhibitors of RecA-Intein Splicing Activity. [Related pubchem assays (depositor defined):AID2097, AID2223, AID489010, AID492950]; type: functional
T4 sequence (P9WHJ3 whole entry): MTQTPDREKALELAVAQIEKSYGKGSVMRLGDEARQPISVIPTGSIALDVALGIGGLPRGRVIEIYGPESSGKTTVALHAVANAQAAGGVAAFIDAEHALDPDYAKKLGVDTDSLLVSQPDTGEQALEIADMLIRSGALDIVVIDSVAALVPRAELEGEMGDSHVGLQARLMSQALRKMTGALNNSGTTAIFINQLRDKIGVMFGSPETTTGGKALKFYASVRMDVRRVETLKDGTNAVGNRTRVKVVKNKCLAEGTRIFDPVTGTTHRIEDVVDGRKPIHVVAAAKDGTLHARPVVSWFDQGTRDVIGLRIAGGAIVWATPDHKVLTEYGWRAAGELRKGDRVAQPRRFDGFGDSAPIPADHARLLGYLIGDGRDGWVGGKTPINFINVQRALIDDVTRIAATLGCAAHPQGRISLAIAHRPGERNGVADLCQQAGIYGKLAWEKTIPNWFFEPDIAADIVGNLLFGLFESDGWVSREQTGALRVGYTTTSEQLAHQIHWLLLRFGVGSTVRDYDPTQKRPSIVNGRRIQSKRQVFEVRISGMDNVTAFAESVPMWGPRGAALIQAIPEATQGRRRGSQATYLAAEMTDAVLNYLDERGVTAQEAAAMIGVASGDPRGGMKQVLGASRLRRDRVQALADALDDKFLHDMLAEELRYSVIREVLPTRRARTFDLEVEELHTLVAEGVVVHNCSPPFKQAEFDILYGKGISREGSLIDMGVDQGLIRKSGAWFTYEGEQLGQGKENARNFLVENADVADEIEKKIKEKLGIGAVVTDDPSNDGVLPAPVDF

[6] = target: Neuropeptide Y receptor type 1 (Homo sapiens, UniProt P25929); type: functional;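 also: HEK293 cells with a CNG channel challenged with NPY then isoproterenol; potency as antagonist that reverses NPY suppression of cAMP signal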
[7] = Intein inhibitors as potential Tuberculosis drugs, a cytotoxicity screen. [Related pubchem assays (depositor defined):AID2221, AID2223, AID434968, AID435010, AID449749, AID449750, AID489010]; type: functional
[8] = target: T5, Replicative DNA helicase DnaB (Mycobacterium tuberculosis, UniProt P9WMR3); assay: DnaB intein splicing inhibitors, dose response, biochemical, cell-free fluorescence (AID 449749); type: functional
T5 sequence (P9WMR3 whole entry): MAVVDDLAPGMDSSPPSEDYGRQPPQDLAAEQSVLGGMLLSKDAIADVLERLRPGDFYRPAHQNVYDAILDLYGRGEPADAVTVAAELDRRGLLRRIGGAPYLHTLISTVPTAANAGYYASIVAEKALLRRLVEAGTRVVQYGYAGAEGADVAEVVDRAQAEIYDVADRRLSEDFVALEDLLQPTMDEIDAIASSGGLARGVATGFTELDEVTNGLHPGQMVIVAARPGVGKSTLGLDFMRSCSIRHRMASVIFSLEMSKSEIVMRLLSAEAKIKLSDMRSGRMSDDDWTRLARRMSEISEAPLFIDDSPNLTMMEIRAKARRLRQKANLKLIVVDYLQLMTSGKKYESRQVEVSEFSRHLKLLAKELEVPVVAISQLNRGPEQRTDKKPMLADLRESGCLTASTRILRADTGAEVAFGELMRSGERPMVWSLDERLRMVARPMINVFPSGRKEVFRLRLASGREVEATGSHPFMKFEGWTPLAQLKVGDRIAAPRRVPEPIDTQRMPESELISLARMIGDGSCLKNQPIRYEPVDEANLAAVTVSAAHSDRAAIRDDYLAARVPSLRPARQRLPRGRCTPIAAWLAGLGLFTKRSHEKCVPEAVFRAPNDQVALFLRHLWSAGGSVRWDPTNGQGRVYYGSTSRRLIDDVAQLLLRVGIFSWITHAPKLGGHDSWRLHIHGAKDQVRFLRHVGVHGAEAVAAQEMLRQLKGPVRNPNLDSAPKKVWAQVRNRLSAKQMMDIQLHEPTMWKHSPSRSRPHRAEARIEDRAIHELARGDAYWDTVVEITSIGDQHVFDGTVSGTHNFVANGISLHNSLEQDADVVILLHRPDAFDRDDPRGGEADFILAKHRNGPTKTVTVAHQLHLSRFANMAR

INS1 = assay: INS-1E survival protection against cytokine death – cell-based, luminescence, retest, dose response (AID 449756); type: functional; settings: Rattus norvegicus;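 also: cell death triggered by IL-1 beta plus TNF-alpha plus IFN-gamma mixture; protective hits raise ATP signal compared with cytokine alone wells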
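For CC50 in this document: cells exposed to compound for 72 hours before luminescence readout.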

Sequence of Neuropeptide Y receptor type 1 (P25929 whole entry): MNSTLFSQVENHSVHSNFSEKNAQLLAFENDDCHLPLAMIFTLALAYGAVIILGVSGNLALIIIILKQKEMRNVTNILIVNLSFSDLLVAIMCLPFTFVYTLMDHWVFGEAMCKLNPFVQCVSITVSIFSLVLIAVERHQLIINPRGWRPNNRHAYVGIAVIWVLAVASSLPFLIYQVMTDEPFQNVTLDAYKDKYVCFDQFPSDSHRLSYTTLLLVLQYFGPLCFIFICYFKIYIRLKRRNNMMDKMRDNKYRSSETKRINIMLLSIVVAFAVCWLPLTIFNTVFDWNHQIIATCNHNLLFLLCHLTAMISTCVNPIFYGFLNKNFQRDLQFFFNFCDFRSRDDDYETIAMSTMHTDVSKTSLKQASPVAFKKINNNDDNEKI
Sequence of Hexokinase-1 (P19367 whole entry): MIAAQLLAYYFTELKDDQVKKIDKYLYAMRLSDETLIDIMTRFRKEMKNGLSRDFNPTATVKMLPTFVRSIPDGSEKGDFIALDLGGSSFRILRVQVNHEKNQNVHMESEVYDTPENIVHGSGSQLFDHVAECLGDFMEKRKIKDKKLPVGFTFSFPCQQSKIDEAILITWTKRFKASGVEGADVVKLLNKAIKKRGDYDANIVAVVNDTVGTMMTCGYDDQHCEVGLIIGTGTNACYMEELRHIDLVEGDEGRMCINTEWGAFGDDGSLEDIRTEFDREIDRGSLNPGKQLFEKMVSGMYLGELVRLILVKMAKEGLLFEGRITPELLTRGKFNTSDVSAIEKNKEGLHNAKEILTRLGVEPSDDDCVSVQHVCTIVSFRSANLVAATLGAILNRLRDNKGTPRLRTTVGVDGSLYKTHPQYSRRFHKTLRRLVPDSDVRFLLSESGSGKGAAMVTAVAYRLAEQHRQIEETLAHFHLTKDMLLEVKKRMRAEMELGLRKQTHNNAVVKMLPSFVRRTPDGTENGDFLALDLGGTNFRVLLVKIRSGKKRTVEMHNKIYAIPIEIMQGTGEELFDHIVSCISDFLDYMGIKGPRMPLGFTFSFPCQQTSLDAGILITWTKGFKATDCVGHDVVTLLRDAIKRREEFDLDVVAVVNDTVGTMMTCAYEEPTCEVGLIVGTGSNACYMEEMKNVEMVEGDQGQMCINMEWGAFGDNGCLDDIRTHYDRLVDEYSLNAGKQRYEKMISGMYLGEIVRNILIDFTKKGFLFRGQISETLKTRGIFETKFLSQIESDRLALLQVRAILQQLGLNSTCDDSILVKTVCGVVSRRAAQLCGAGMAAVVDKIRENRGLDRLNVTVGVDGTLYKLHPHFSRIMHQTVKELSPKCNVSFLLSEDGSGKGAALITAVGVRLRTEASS
Sequence of Lysine-specific demethylase 4C (Q9H3R0 whole entry): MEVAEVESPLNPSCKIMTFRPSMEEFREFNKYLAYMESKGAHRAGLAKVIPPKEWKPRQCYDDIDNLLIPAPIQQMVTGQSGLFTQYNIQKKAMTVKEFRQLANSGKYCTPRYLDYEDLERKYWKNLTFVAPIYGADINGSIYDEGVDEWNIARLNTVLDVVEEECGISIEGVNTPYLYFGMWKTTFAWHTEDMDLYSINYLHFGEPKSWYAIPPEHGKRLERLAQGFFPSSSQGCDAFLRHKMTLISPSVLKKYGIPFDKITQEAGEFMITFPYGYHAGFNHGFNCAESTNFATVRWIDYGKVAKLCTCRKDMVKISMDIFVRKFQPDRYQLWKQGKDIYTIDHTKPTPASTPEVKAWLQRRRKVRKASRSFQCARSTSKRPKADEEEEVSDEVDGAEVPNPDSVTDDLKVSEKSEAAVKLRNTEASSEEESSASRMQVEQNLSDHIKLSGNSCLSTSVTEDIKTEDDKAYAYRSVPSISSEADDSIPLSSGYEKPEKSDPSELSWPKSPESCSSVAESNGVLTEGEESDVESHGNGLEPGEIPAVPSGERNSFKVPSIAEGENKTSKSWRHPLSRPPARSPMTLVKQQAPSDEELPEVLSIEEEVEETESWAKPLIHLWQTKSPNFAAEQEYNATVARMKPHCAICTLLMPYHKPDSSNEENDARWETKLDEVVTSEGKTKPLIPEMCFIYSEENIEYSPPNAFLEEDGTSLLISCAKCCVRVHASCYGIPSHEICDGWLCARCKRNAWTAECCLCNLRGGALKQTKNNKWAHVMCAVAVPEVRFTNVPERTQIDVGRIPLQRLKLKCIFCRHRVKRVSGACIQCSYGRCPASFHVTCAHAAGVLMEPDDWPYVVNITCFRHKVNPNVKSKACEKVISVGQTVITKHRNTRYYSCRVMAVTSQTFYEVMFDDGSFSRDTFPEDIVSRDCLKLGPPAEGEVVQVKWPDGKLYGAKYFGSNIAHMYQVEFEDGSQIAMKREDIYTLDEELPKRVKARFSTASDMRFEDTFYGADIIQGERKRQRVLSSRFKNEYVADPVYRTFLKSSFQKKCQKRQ
Sequence of Nonstructural protein 1 (Q194T2 whole entry): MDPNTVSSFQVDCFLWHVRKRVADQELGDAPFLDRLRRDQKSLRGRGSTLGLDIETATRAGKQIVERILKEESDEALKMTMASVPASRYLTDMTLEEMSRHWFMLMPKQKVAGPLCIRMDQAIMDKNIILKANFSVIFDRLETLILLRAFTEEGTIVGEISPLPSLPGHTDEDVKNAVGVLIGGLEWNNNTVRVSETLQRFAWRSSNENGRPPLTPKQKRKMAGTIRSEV
Sequence of Neuropeptide Y receptor type 2 (P49146 whole entry): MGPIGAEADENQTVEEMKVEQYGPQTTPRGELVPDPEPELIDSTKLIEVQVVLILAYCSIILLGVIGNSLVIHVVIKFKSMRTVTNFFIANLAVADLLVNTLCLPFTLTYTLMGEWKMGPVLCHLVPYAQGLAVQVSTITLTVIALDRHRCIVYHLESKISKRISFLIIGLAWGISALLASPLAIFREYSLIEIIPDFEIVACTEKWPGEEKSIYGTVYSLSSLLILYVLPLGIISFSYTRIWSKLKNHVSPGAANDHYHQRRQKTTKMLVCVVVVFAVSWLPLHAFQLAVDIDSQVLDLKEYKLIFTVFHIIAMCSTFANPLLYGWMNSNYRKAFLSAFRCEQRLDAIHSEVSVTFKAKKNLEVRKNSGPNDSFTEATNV

Cc1cccc(-n2cnc(C(=O)NN=C(S)Nc3ccccc3)c2)n1
active: IC50 [2] 6.96 µM | IC50 (Nonstructural protein 1) 4.86 µM | IC50 [3] 14.8 µM | AC50 [4] 5.67 µM
inactive: IC50 [1] > 122 µM | IC50 (Bcl-2-related protein A1) > 20 µM

Cc1ccccc1NC1=NN=C(c2ccccc2F)CS1
inactive: EC50 (Hexokinase HKDC1) 27 µM | EC50 (Hexokinase-1) 53.2 µM

COC(=O)c1c(C)oc2ccc(N(C(=O)c3ccncc3)S(=O)(=O)c3ccc4ccccc4c3)cc12
active: IC50 [5] 7.94 µM | EC50 (Protein RecA) 4.08 µM | IC50 [6] 4.84 µM | CC50 [7] 36.5 µM | AC50 [8] 4.46 µM | AC50 (INS1) 12.9 µM
